# Measured values taken from article PMC11793105, “A kalihinol analog disrupts apicoplast function and vesicular trafficking in P. falciparum malaria” (Science (New York, N.Y.), 2024).
# Columns and labels:
# P. falciparum = settings: several P. falciparum drug-sensitive and drug-resistant strains; earlier study; read-out: IC50 (median inhibitory concentration); cited from earlier work
# [1] = test system: P. falciparum D10-ACP-GFP (MRA-568); experiment: SYBR Green I growth inhibition assay, D10-ACP-GFP; assay type: cell-based, Plasmodium falciparum; settings: early-ring stage, 72 h exposure
# Experimental: Fig. 1. […] (B) SYBR Green–based dose response assays were conducted on early-ring stage parasites (6 hours after invasion). […] 3D7 WT (blue), NF54 (green), drug-resistant strains Dd2 (red), HB3 (black), W2 (gray), and D10-ACP-GFP (purple) lines (Sigmoidal, 4PL, X is concentration, n ≥ 3, nonlinear regression, CI: 95%). (C) Schematic diagram of the development of P. falciparum after two consecutive erythrocytic cycles. The time points at which MED6-189 was introduced are depicted in green. HPS, hours post synchronization. […] The images depict various developmental stages of the parasite’s intraerythrocytic life cycle. […]
# Fluorescence microscopy analyses were conducted using D10-ACP-GFP transgenic parasites, which express a fusion of the acyl carrier protein (ACP) with green fluorescent protein (GFP) in the parasite apicoplast ([25]). […]
# Detailed information on materials and methods is available in the supplementary materials. […] P. knowlesi assays were quantitatively measured by flow cytometry using SYBR Green I and Mitrotracker Deep Red, as previously described ([84], [85]), on a Beckman Coulter CytoFLEX. […]
# P. falciparum in vitro SYBR green fluorescence-based assays The anti-malarial activity of individual analogues were evaluated in-vitro against P. falciparum 3D7 (MRA-102, drug […]
# green-I based fluorescence assay. […]
# HepG2 = experiment: Human cell line activity, HepG2; assay type: cell-based; settings: HepG2, read-out: IC50 (µM) HepG2
# erythrocytes = experiment: Hemolytic activity assay (Giemsa smeared culture images); assay type: cell-based; settings: concentrations up to 10 μM
# Experimental: and two formamide derivatives.
# 2 and GB209-3 compounds tested after 48Hr and 72Hr drug incubation. […]
# [2] = biological target: hPXR (human pregnane X receptor) (Homo sapiens, UniProt O75469); experiment: Enhanced Cross Screen Panel (eXP): hPXR; assay type: in vitro ADME
# Sequence of hPXR (human pregnane X receptor) (O75469 whole entry): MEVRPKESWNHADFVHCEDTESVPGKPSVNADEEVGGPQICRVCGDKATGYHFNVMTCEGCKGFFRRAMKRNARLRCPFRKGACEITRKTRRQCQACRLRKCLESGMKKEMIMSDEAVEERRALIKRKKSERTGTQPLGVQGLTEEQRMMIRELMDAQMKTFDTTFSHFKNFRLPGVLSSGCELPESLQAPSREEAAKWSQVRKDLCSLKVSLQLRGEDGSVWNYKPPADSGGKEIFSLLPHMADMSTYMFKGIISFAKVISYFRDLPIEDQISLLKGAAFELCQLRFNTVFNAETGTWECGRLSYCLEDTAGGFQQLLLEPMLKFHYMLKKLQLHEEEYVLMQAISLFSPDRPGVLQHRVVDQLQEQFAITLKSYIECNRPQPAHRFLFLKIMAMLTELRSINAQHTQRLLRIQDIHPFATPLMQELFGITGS
# [3] = biological target: BSEP (bile salt export pump) (Homo sapiens, UniProt O95342); experiment: Enhanced Cross Screen Panel (eXP): BSEP inhibition
# Sequence of BSEP (bile salt export pump) (O95342 whole entry, species assumed): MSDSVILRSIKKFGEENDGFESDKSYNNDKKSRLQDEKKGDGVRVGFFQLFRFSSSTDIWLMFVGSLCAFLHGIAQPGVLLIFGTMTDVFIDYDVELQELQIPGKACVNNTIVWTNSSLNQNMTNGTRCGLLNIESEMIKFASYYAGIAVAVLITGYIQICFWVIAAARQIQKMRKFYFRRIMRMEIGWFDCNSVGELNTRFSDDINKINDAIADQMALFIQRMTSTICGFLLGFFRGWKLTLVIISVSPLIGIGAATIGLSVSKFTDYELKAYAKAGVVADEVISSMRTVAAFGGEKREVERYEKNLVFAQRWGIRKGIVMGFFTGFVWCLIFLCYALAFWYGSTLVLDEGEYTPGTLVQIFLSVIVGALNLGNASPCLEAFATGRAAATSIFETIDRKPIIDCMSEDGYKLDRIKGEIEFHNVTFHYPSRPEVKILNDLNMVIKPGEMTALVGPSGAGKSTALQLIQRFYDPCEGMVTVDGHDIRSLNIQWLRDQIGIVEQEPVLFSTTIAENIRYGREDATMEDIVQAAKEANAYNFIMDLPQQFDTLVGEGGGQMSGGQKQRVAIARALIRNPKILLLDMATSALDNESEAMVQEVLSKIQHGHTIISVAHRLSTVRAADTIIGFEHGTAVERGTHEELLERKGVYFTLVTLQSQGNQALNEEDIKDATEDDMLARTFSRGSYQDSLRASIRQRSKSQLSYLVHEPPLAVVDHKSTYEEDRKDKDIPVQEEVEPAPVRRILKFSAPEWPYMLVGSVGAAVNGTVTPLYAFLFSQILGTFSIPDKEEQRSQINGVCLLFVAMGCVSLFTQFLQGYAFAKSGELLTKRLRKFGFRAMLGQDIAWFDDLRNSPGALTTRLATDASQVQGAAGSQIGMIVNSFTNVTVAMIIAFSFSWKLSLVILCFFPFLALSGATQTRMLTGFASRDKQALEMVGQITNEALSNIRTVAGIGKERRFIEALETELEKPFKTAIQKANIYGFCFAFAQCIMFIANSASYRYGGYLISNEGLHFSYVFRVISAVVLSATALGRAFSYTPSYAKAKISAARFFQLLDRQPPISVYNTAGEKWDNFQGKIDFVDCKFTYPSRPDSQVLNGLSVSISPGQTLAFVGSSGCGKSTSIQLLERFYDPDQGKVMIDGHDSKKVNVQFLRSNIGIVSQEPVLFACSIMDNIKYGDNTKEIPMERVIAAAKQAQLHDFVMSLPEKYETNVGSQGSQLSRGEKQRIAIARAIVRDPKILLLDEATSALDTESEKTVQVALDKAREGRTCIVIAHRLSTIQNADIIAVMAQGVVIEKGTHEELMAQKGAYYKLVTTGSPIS
# [4] = test system: P. falciparum NF54 gametocytes; experiment: Gametocyte development (sexual stage phenotype) assay; assay type: cell-based, Plasmodium falciparum; set-up: gametocytes after high dose: dose or concentration left out as unconfirmed
# From the text: Parasitemia and sexual stage phenotype analyses To understand the phenotypic effects of […]
# exposed to stress induced gametocyte induction followed by treatment with N-acetyl glucosamine (NAG; Sigma-Aldrich) supplemented media for 6-7 days to eliminate remaining asexual parasites.
# Upon first signs of gametocyte formation observed through giemsa stained smears (5-7 post stress […]
# with 3 biological replicates per condition. Culture media were replaced daily with reintroduction of the drug. Gametocyte parasitemia and proportion of the different sexual blood stages were determined by counting Giemsa-stained blood smears by light microscopy at every 24-hour time
smiles,measurement,setting,value
[C-]#[N+][C@]1(C)CC[C@H]2[C@@H]([C@@H](C(C)C)CC[C@]2(C)[N+]#[C-])[C@H]1O [MED6-189],IC50,P. falciparum,< 0.05 µM
same,IC50,"[1]; Plasmodium falciparum, D10, 72 h",0.017 µM
same,IC50,[1],0.0172 µM
same,IC50,HepG2,34 µM
same,hemolytic activity,erythrocytes,no hemolytic activity
same,IC50,[2],7.4 µM
same,IC50,[3],50 µM
same,(%) Gametocyte MED6-189 (average),"[4]; 300nM, day 1 post drug introduction",0%
same,(%) Gametocyte MED6-189 (average),"[4]; 300nM, day 2 post drug introduction",0.1035%
same,(%) Gametocyte MED6-189 (average),"[4]; 300nM, day 3 post drug introduction",0.55%
same,% Change of gametocytemia,"[4]; 300nM, day 4",100%
same,(%) Gametocyte MED6-189 (average),"[4]; 300nM, day 4 post drug introduction",1.5%
same,(%) Gametocyte MED6-189 (average),"[4]; 300nM, day 5 post drug introduction",3.175%
same,(%) Gametocyte MED6-189 (average),"[4]; 300nM, day 6 post drug introduction",2.102%
same,(%) Gametocyte MED6-189 (average),"[4]; 300nM, day 7 post drug introduction",1.15%
same,(%) Gametocyte MED6-189 (average),"[4]; 300nM, day 8 post drug introduction",1.35%
same,(%) Gametocyte MED6-189 (average),"[4]; 300nM, day 9 post drug introduction",1.25%
same,inhibition of early gametocyte development vs controls,"[4]; 300 nM, stage III: days 4 to 6",~ 62%
same,gametocytes after high dose,"[4]; early stages of gametocyte development, after 48 hours of drug treatment",no quantifiable gametocytes were observed
same,effect on mature-stage gametocytes,[4]; stage V,little to no effect
